From patent US20080058208A1, “5,6-Cycloalkyl-7-Aminotriazolopyrimidines, their Preparation and their Use for Controlling Harmful Fungi, and Compositions Comprising these Compounds” (BASF Aktiengesellschaft, priority 2004, published 2008)

Assays:
Pythium species = experiment: Activity against Pythium species in the microtiter test; type: cell-based; conditions: 125 ppm; zoospore suspension; 18° C.; absorption at 405 nm on seventh day after inoculation
Phytophthora infestans = type: cell-based; conditions: 125 ppm; sporangia suspension; 18° C.; absorption at 405 nm on seventh day after inoculation

Compound: Nc1c2c(nc3ncnn13)CCCC2 [I-2, 5,6,7,8-tetrahydro-[1,2,4]triazolo[5,1-b]quinazolin-9-ylamine]
- relative growth of the pathogens, % of that of the untreated control (Pythium species): 7%
- relative growth of the pathogens, % of that of the untreated control (Phytophthora infestans): 6%
